Source: ChEMBL document CHEMBL1146137, “Synthesis and evaluation of febrifugine analogues as potential antimalarial agents” (Bioorg Med Chem Lett, 2006)

What was measured:
[1] = test system: Plasmodium falciparum; experiment: Antimalarial activity against chloroquine-sensitive Plasmodium falciparum D6; type: functional, organism-based
[2] = test system: Hepatocyte; experiment: Cytotoxicity against rat hepatocytes; type: functional, cell-based
[3] = test system: Plasmodium falciparum; experiment: Antimalarial activity against chloroquine-resistant Plasmodium falciparum W2; type: functional, organism-based

Which results are given for O=C(C[C@H]1NCCC[C@@H]1O)Cn1cnc2c(F)cccc2c1=O?
IC50 [1]: 103 nM; IC50 [2]: 16000 nM; IC50 [3]: 100 nM

Which IC50 [1] does the source give for O=C(C[C@H]1NCCC[C@@H]1O)Cn1cnc2ccc(F)cc2c1=O here?
The IC50 was 4.7 nM.

What about the IC50 [2] of the same molecule?
The IC50 was 13000 nM.

And the IC50 [3]?
Its IC50 is 5 nM.

Which IC50 [1] does the source give for CC(C)(C)c1ccc2ncn(CC(=O)C[C@H]3NCCC[C@@H]3O)c(=O)c2c1 here?
The IC50 was 165 nM.

And the IC50 [3]?
The IC50 was 188 nM.

With O=C(C[C@H]1NCCC[C@@H]1O)Cn1cnc2cccc(C(F)(F)F)c2c1=O as the molecule, how does the IC50 [1] read?
Its IC50 is 0.43 nM.

What about the IC50 [2] of the same molecule?
Its IC50 is 19000 nM.

What about the IC50 [3] of the same molecule?
The IC50 was 0.41 nM.

How did the IC50 [1] turn out when O=C(C[C@H]1NCCC[C@@H]1O)Cn1cnc2cccc(F)c2c1=O was run?
Its IC50 is 1.3 nM.

And the IC50 [2]?
The IC50 was 19000 nM.

And the IC50 [3]?
Its IC50 is 1.3 nM.

For O=C(C[C@H]1NCCC[C@@H]1O)Cn1cnc2ncccc2c1=O, which IC50 [1] is on record?
Its IC50 is 70 nM.

And the IC50 [2]?
Its IC50 is 22000 nM.

What about the IC50 [3] of the same molecule?
The IC50 was 109 nM.

What does the source list for O=C(C[C@@H]1NCCC[C@H]1O)Cn1cnc2ccccc2c1=O [FEBRIFUGINE]?
IC50 [1]: 1.6 nM; IC50 [2]: 169 nM; IC50 [3]: 1.9 nM

How did the IC50 [1] turn out when O=C(C[C@H]1NCCC[C@@H]1O)Cn1cnc2ccc(C(F)(F)F)cc2c1=O was run?
The IC50 was 14 nM.

And the IC50 [2]?
The IC50 was 15000 nM.

And the IC50 [3]?
The IC50 was 16 nM.

Cc1ccc2c(=O)n(CC(=O)C[C@H]3NCCC[C@@H]3O)cnc2c1 was tested. Which IC50 [1] did it give?
The IC50 was 2 nM.

And the IC50 [2]?
Its IC50 is 117 nM.

What about the IC50 [3] of the same molecule?
Its IC50 is 2.2 nM.

What does the source list for CC(C)(C)c1cccc2ncn(CC(=O)C[C@H]3NCCC[C@@H]3O)c(=O)c12?
IC50 [1]: 132 nM; IC50 [2]: 70000 nM; IC50 [3]: 160 nM

For CCN(CC)CCCC(C)Nc1ccnc2cc(Cl)ccc12 (stereo unspecified) [CHLOROQUINE], which IC50 [2] is on record?
The IC50 was 19000 nM.

What does the source list for O=C(C[C@H]1NCCC[C@@H]1O)Cn1cnc2ccncc2c1=O?
IC50 [1]: 1.5 nM; IC50 [2]: 17000 nM; IC50 [3]: 1.8 nM

With O=C(C[C@H]1NCCC[C@@H]1O)Cn1cnc2cnccc2c1=O as the molecule, how does the IC50 [1] read?
Its IC50 is 63 nM.

What about the IC50 [2] of the same molecule?
Its IC50 is 19000 nM.

And the IC50 [3]?
Its IC50 is 73 nM.

Which results are given for Cc1cccc2c(=O)n(CC(=O)C[C@H]3NCCC[C@@H]3O)cnc12?
IC50 [1]: 1.7 nM; IC50 [2]: 140 nM; IC50 [3]: 1.9 nM

For COc1cccc2c(=O)n(CC(=O)C[C@H]3NCCC[C@@H]3O)cnc12, which IC50 [1] is on record?
Its IC50 is 1.2 nM.

What about the IC50 [2] of the same molecule?
The IC50 was 16 nM.

And the IC50 [3]?
The IC50 was 1.3 nM.

For O=C(C[C@H]1NCCC[C@@H]1O)Cn1cnc2ccc(F)c(F)c2c1=O, which IC50 [1] is on record?
Its IC50 is 0.33 nM.

And the IC50 [2]?
Its IC50 is 17000 nM.

And the IC50 [3]?
The IC50 was 0.39 nM.

For COc1ccc2c(=O)n(CC(=O)C[C@H]3NCCC[C@@H]3O)cnc2c1, which IC50 [1] is on record?
The IC50 was 1.4 nM.

And the IC50 [2]?
Its IC50 is 15 nM.

What about the IC50 [3] of the same molecule?
Its IC50 is 1.3 nM.

Which IC50 [1] does the source give for O=C(C[C@H]1NCCC[C@@H]1O)Cn1cnc2cccnc2c1=O here?
The IC50 was 1.2 nM.

What about the IC50 [2] of the same molecule?
Its IC50 is 18000 nM.

What about the IC50 [3] of the same molecule?
The IC50 was 1.3 nM.
